In patent publication US6767569B1, “Surface decontamination of cooked sausage and processed meat and poultry products” (priority 1999, dated 2004):
“And” between values parts separate entries of the source, which are not always exact repeats. Identical values can stand only once. Marks after values point to notes of the source that are not given here.

Columns and labels:
[1] = system: Listeria monocytogenes; assay: Dip treatment of Listeria monocytogenes-inoculated frankfurters, quantitative plating on MOX agar; assay type: cell-based
Description: A five-strain mixture of Listeria monocytogenes was used for purposes of inoculation. To prepare this mixture, five strains of L. monocytogenes were grown individually in tryptic soy broth (TSB), for 48±2 h at 30° C. Equivalent aliquots of broth from each strain were then combined in a sterile test tube to achieve a mixed inoculum containing approximately equal populations of each of the five strains. The mixed culture was diluted as appropriate using 0.1% peptone diluent to achieve a final mixed inoculum with a cell density of approximately 10,000 colony forming units (cfu)/ml.
Packages of commercially prepared beef frankfurter sausages (“franks”) were obtained from a local retail outlet. The packages were stored at 4° C. until use (no more than 24 hours). Immediately prior to testing, the franks were removed from the commercial packaging and placed on a sterile surface in a biological safety cabinet. The franks were oriented on the surface such that no franks were in contact with each other. Using a micropipette, each individual frank (except for those used as controls) was inoculated with 0.1 ml of the previously prepared mixed inoculum with a target inoculation level of 1,000 cfu/frank. A sterile bent rod was used to spread the inoculum over the frank surface as evenly as possible. Inoculated franks were allowed to remain undisturbed on the sterile surface for at least 5 minutes prior to treatment with the decontaminant solution. Three franks were inoculated per treatment to be evaluated, one frank being tested without inoculation.
The peracetic acid used in the evaluation was obtained as a 35% concentrate under the trade name STERIS 20™ Sterilant Concentrate from STERIS Corporation (Mentor, Ohio). The concentrate was used without the buffers or other additives supplied by the manufacturer. The concentrate was diluted to appropriate nominal concentrations (100, 500, and 1000 ppm). Approximately 1 L of each concentration to be evaluated was prepared in sanitized 2 L, plastic containers. Additionally, 1 L of a control treatment, namely sterile distilled water (0 ppm peracetic acid), was also prepared in a 2 L container. Each of these four concentrations was evaluated using two exposure times, 2 and 10 seconds. Therefore, a total of eight treatments (four peracetic acid concentrations (0, 100, 500, and 1000 ppm) at two exposure times (2 and 10 seconds) were evaluated in this study. Each test was carried out two or more times for establishing reproducibility.
All peracetic acid treatments were performed inside a biological safety cabinet. Inoculated franks were dipped into the peracetic acid treatment solution (or distilled water for the 0 ppm samples) and allowed to remain submerged for either 2 or 10 seconds. Sterile utensils were employed to remove the franks from the treatment solution and transfer them to a sterile distilled water rinse. Franks were then submerged in a sterile water rinse and remained submerged for 2 or 10 seconds (i.e., the same time as they were exposed to the peracetic acid solution) and were removed with sterile utensils. Immediately after removal from the sterile water rinse, the franks were placed on a sterile surface and allowed to air dry for 5 minutes.
(§1) Following air drying, one frank per treatment was placed in a sterile Stomacher bag and analyzed quantitatively for residual L. monocytogenes populations. The remaining two franks were retained in sterile Stomacher bags and used for qualitative analysis, if necessary (in the event no surviving cells were detected using quantitative procedures).
To determine the number of surviving L. monocytogenes cells (quantitative evaluation), one frank per treatment was analyzed. The weight of the frank was determined and an appropriate volume of 0.1% peptone diluent added to achieve a 1:5 dilution. These samples were homogenized for 2 minutes using a Stomacher Lab Blender. […]

[2] = system: Listeria species; assay: Dip treatment of inoculated frankfurters, qualitative (enrichment) procedure with TECRA Listeria ELISA; assay type: cell-based, Listeria monocytogenes; set-up: key: POS: Positive indicates that at least one colony grew during the test; NEG: Negative indicated that no colonies grew
Description: as §1
The plating techniques used were capable of detection down to 5 cfu/ml (1 colony/0.2 ml) for the spiral plating method and 0.5 cfu/ml for the spread plating method (1 colony/2 ml). In the event that no surviving L. monocytogenes cells were observed using direct plating procedures, two franks per treatment were evaluated using qualitative (enrichment) procedures. A 10 mL aliquot of the retained homogenate was placed added to 90 mL of UVM broth to achieve a 1:10 dilution. These samples were shaken by hand for 1 minute and incubated at 30° C. for 24 h. Following this primary enrichment, 0.1 mL was transferred to 10 mL of Fraser broth and incubated at 30° C. for 24 h. This secondary enrichment was then used to perform an ELISA screening procedure (TECRA Listeria species assay). Results of this qualitative analysis were used to indicate whether the sample was “positive” or “negative” for the presence of Listeria species.
The target inoculation level before treatment was 1,000 CFU/frank. It can be seen that a 2 second treatment is sufficient to remove most, but not all Listeria from the franks. A 10 second treatment reduces the Listeria count below the detection limit of the quantitative assessment procedures, although a few colonies were detected in the qualitative procedure. […] Therefore, the true population of any samples with a population of <90 CFU/frank could not be specifically determined.

[3] = system: Listeria; assay: Further tests: peracetic acid sprayed over the frankfurters; assay type: cell-based, Listeria monocytogenes; conditions: 2000 ppm sprayed over the frankfurters for 30 seconds to one minute
[4] = system: Listeria monocytogenes ATCC. 43256; assay: D-values for Listeria monocytogenes in peracetic acid solutions (suspension test); assay type: cell-based
Description: Peracetic acid solutions of 500, 1000, and 2000 mg/L (ppm) were prepared as for Example 1, using deionized water. To 100 mL samples of the solutions, 1.7×10^6 Listeria monocytogenes ATCC. 43256 per mL were added and mixed. The samples were maintained at a preselected temperature ([…], ˜15° C., or ˜22° C.). At 10, 20, 30, 40, and 50 seconds contact time, 1 mL was removed, neutralized, and the Listeria monocytogenes organisms remaining were determined by plating on TSA and incubation. […] D-values (time required to kill one log of the test microorganism—in this case, a reduction in microorganisms from 1.7×10^6 initially to 1.7×10^5) were determined, as shown in TABLE 4. D-values below the detection limit of the test are shown as <2 seconds.

CC(=O)OO [peracetic acid]
After treatment (CFU/frank) ([1]; PAA 100 ppm (actual 114 ppm), 2 sec exposure followed by 2 sec deionized water rinse): 180 CFU/frank and <90* CFU/frank and 90 CFU/frank | After treatment (CFU/frank) ([1]; PAA 100 ppm (actual 114 ppm), 2 sec exposure followed by 2 sec deionized water rinse, listed as PAA): at least 90 CFU/frank | After treatment (CFU/frank) ([1]; PAA 100 ppm (actual 114 ppm), 10 sec exposure followed by 10 sec deionized water rinse, target inoculation 1,000 CFU/frank): <90* CFU/frank and 180 CFU/frank | After treatment (CFU/frank) ([1]; PAA 100 ppm (actual 114 ppm), 10 sec exposure followed by 10 sec deionized water rinse, target inoculation 1,000 CFU/frank, listed as PAA): at least 90 CFU/frank | After treatment (CFU/frank) ([1]; PAA 500 ppm (actual 572 ppm), 2 sec exposure followed by 2 sec deionized water rinse): <90* CFU/frank and 90 CFU/frank | After treatment (CFU/frank) ([1]; PAA 500 ppm (actual 572 ppm), 2 sec exposure followed by 2 sec deionized water rinse, listed as PAA): < 90 CFU/frank | After treatment (CFU/frank) ([1]; PAA 500 ppm (actual 572 ppm), 10 sec exposure followed by 10 sec deionized water rinse): <90* CFU/frank | After treatment (CFU/frank) ([1]; PAA 500 ppm (actual 572 ppm), 10 sec exposure followed by 10 sec deionized water rinse, listed as PAA): less than the detection limit of the quantitative plating procedure | After treatment (CFU/frank) ([1]; PAA 1000 ppm (actual 1146 ppm), 2 sec exposure followed by 2 sec deionized water rinse): <90* CFU/frank | After treatment (CFU/frank) ([1]; PAA 1000 ppm (actual 1146 ppm), 2 sec exposure followed by 2 sec deionized water rinse, listed as PAA): < 90 CFU/frank | After treatment (CFU/frank) ([1]; PAA 1000 ppm (actual 1146 ppm), 10 sec exposure followed by 10 sec deionized water rinse): <90* CFU/frank | After treatment (CFU/frank) ([1]; PAA 1000 ppm (actual 1146 ppm), 10 sec exposure followed by 10 sec deionized water rinse, listed as PAA): < 90 CFU/frank | POS/NEG (qualitative analysis after treatment) ([2]; PAA 100 ppm (actual 114 ppm), 2 sec exposure, 2 sec rinse): POS | POS/NEG (qualitative analysis after treatment) ([2]; PAA 100 ppm (actual 114 ppm), 10 sec exposure, 10 sec rinse): POS | POS/NEG (qualitative analysis after treatment) ([2]; PAA 500 ppm (actual 572 ppm), 2 sec exposure, 2 sec rinse): POS | POS/NEG (qualitative analysis after treatment) ([2]; PAA 500 ppm (actual 572 ppm), 10 sec exposure, 10 sec rinse): POS and NEG | POS/NEG (qualitative analysis after treatment) ([2]; PAA 1000 ppm (actual 1146 ppm), 2 sec exposure, 2 sec rinse): NEG and POS | POS/NEG (qualitative analysis after treatment) ([2]; PAA 1000 ppm (actual 1146 ppm), 10 sec exposure, 10 sec rinse): NEG and POS | kill level [3]: complete kill | D-value ([4]; 500 mg/L, 8.3-8.5 °C, pH 3.7-3.7): 2 s | D-value ([4]; 500 mg/L, 14.7-15.0 °C, pH 3.4-3.6): <2 s | D-value ([4]; 500 mg/L, 22.7-22.8 °C, pH 3.4-3.6): <2 s | D-value ([4]; 1000 mg/L, 8.1-8.1 °C, pH 3.2-3.4): <2 s | D-value ([4]; 1000 mg/L, 15.0-15.2 °C, pH 3.2-3.4): <2 s | D-value ([4]; 2000 mg/L, 8.1-8.4 °C, pH 3.0-3.1): <2 s | D-value ([4]; 2000 mg/L, temperature range printed 3.0-3.1 °C, pH 3.0-3.1): <2 s | Listeria monocytogenes organisms remaining ([4]; 500, 1000, 2000 mg/L, 10-50 seconds contact, except the sample at 500 mg/L, ~8 °C, 10 seconds): destroyed in all cases
